US20090304714A1, “IKKi Inhibitor Therapies and Screening Methods, and Related IKKi Diagnostics” (The Regents of the University of Michigan, priority 2008, published 2009)

Experiments:
3T3L1 adipocytes = assay: Insulin-stimulated 2-deoxyglucose uptake in 3T3L1 adipocytes; assay type: cell-based, mouse; parameters: inhibitory effects of LPS on insulin-stimulated glucose uptake / direct effect on insulin-stimulated or basal transport: dose or concentration left out as unconfirmed
Procedure: Cell culture and transfection. 3T3-L1 fibroblasts (American Type Culture Collection) were cultured and differentiated as described previously [Reed & Lane, Proc Natl Acad Sci USA. 1980 January; 77(1):285-9, herein incorporated by reference]. Cells were routinely used within 7 days upon completion of the differentiation process, with only cultures in which >95% of cells displaying adipocyte morphology being used. CHO-IR and COS-1 cells were maintained in Dulbecco modified Eagle medium (Gibco) containing 10% foetal bovine serum. CHO-IR and 3T3-L1 cells were routinely transfected with plasmids and siRNA by electroporation as described previously (Inoue, M., et al., (2006) Mol. Biol. Cell 17, 2303, Baumann, et al., (2000) Nature 407, 202, both of which are herein incorporated by reference). Cos-1 cells were transfected using FuGene6 (Roche Diagnostics) in accordance with the manufacturer's protocol.
Glucose uptake analysis. 3T3-L1 adipocytes grown in 12-well plates were subjected to a glucose uptake assay as described previously [Van den Berghe et al., Mol Cell Biol. 1994 April; 14(4):2372-7, herein incorporated by reference] using 0.075 uCi/well 2-deoxy-D-[^14C]glucose (GE Health). Samples were counted in an LS6500 Multi-Purpose Scintillation Counter (Beckman Coulter) using BCS Biodegradable Counting Scintillant (GE Health).

[1] = target: human insulin receptor Ser^1035Ala mutant (UniProt P06213)

Row | Molecule | direct effect on insulin-stimulated or basal transport (3T3L1 adipocytes; 3T3L1 adipocytes) | LPS decreases in insulin stimulated glucose uptake (3T3L1 adipocytes; 3T3L1 adipocytes treated with 50 nM inhibitor prior to LPS and insulin (FIG. 6b)) | inhibitory effects of LPS on insulin-stimulated glucose uptake (3T3L1 adipocytes; 3T3L1 adipocytes treated, then LPS, followed by insulin) | incorporation of radioactive phosphate into the receptor [1]
1 | COc1cc2ncn(-c3cc(OCc4ccccc4S(C)(=O)=O)c(C#N)s3)c2cc1OC [5-(5,6-Dimethoxy-1H-benzimidazol-1-yl)-3-[[2-(methylsulfonyl)phenyl]methoxy]-2-thiophenecarbonitrile] | little direct effect | prevents | prevented | 
2 | wild-type IKKi (ectopically expressed, Example 1) |  |  |  | the Ser^1035Ala substitution blocked the incorporation of radioactive phosphate relative to the wild-type receptor when co-expressed with IKKi
